Experiment: xn = mol fraction of the nth substance listed
Details: Liquid; for viscosity / mass density: 101 kPa; for viscosity: Concentric cylinders viscometry; for mass density: Vibrating tube method; for speed of sound: 100 kPa, Pulse-echo method

CC(CC(C)(C)C)CC(C)(C)C [2,2,4,6,6-pentamethylheptane] + CCCCCCCCCCCC
Details	mass density [kg/m3]	speed of sound [m/s]	viscosity [mPa·s]
323.15 K, x1 = 0.1	726.674	–	–
323.15 K, x1 = 0.2	726.352	–	–
323.15 K, x1 = 0.2885	726.139	–	–
323.15 K, x1 = 0.3998	725.68	–	–
323.15 K, x1 = 0.4999	725.324	–	–
323.15 K, x1 = 0.6501	724.781	–	0.844
323.15 K, x1 = 0.7998	724.136	–	0.836
333.15 K, x1 = 0.1	719.342	1138.7	0.784
333.15 K, x1 = 0.2	719.024	1129.6	0.774
333.15 K, x1 = 0.2885	718.82	1121.7	0.766
333.15 K, x1 = 0.3998	718.363	1111.7	0.757
333.15 K, x1 = 0.4999	718.004	1101.9	0.75
333.15 K, x1 = 0.6501	717.449	1087.9	0.741
333.15 K, x1 = 0.7998	716.783	1072.8	0.734
333.15 K, x1 = 1	–	1052.5	–
343.15 K, x1 = 0.1	711.9	–	0.691
343.15 K, x1 = 0.2	711.7	–	0.683
343.15 K, x1 = 0.2885	711.5	–	0.677
343.15 K, x1 = 0.3998	710.9	–	0.668
343.15 K, x1 = 0.4999	710.6	–	0.664
343.15 K, x1 = 0.6501	710	–	0.656
343.15 K, x1 = 0.7998	709.4	–	0.651
353.15 K, x1 = 0.1	704.4	–	0.614
353.15 K, x1 = 0.2	704.1	–	0.607
353.15 K, x1 = 0.2885	703.8	–	0.603
353.15 K, x1 = 0.3998	703.5	–	0.595
353.15 K, x1 = 0.4999	703	–	0.591
353.15 K, x1 = 0.6501	702.5	–	0.584
353.15 K, x1 = 0.7998	701.8	–	0.58
363.15 K, x1 = 0.1	696.8	–	0.551
363.15 K, x1 = 0.2	696.5	–	0.545
363.15 K, x1 = 0.2885	696.3	–	0.526
363.15 K, x1 = 0.3998	695.8	–	0.534
363.15 K, x1 = 0.4999	695.4	–	0.531
363.15 K, x1 = 0.6501	694.8	–	0.525
363.15 K, x1 = 0.7998	694.1	–	0.521
373.15 K, x1 = 0.1	689	–	0.498
373.15 K, x1 = 0.2	688.8	–	0.493
373.15 K, x1 = 0.2885	688.6	–	0.49
373.15 K, x1 = 0.3998	688.1	–	0.483
373.15 K, x1 = 0.4999	687.7	–	0.481
373.15 K, x1 = 0.6501	687.1	–	0.476
373.15 K, x1 = 0.7998	686.3	–	0.472

Reference: the NIST ThermoML archive (doi:10.1021/je5000132)
